{
  "source": "patent US7927785B2",
  "about": "“Methods for in vitro expansion of hematopoietic stem cells” (The Board of Trustees of the University of Illinois, priority 2002, dated 2011)",
  "tested_on": "CpG residue located at −256 position within the γ-globin promoter region",
  "test": "COBRA (Combined Bisulfite Restriction Analysis) of DNA methylation",
  "format": "cell-based, human",
  "method": "DNA was prepared from cultured CD34^+ cells (0.5-2.0×10^6 total cells) using the QIAamp DNA blood Minikit (Qiagen, Valencia, Calif.) according to manufacturer's instructions. The purified DNA was digested with 10-20 units Hind III at 37° C. for one hour followed by two extractions with a 50/50/1 mixture of phenol/chloroform/isoamyl:alcohol saturated with 0.5 M Tris, pH 7.5. The digested DNA was precipitated overnight at −20° C. in the presence of 2.5 volumes ethanol and 0.3 M sodium acetate, pH 7.0. DNA was harvested by centrifugation, washed 2× in 70% ethanol and dissolved in H2O.\nDNA Denaturation was performed by incubation of 1-2 μg DNA in 10-20 μl 0.3 M NaOH at 37° C. for 20 minutes. Bisulfite modification was performed by the addition of 200 μl bisulfite solution (2.5 M sodium metabisulfite, 100 mM hydroquinone) prepared according to the method as described (Clark et al., Nucleic Acid Res. 22:2990-2997, 1994; Raizis et al., Anal. Biocem; 226:161-166, 1995; Xiong et al., Nucleic Acid Res., 2532-2534, 1997), followed by incubation for 4 hours at 50° C. […]\nFor COBRA (Combined Bisulfite Restriction Analysis), a 201 bp fragment of the γ-globin promoter region was amplified by two rounds of PCR using doubly nested primers. […] Digested products were analyzed by polyacrylamide gel electrophoresis (5% gel), visualized by staining with ethidium bromide, and quantified by densitometry.",
  "data": [
    {"smiles": "Nc1ncn([C@H]2C[C@H](O)[C@@H](CO)O2)c(=O)n1", "note": "[5azaD, 5-aza2′deoxycitidine]", "values": [
      {"measurement": "% Hypomethylation", "setting": "5 days of culture, 5azaD 10−6M, TSA 5 ng/ml, approximated", "value": 68, "unit": "%"},
      {"measurement": "% Methylation (COBRA, −256 position of γ-globin promoter)", "setting": "cultured 5 days with cytokines, densitometry", "value": 32, "unit": "%"}
    ]}
  ]
}
